Numbered stars: 1 amine (or outer) side, 2 acyl side, 3 side chain; on linkers, the order of the positions; unused ones are H or OH. Square brackets hold non-standard residues; d marks the D form. Peptide text beside a SMILES is read from it. * marks the point of attachment. X2 = O=C1CN2CCN(CCN(CC3CCN(CC(=O)*)CC3)CC2)CC(=O)[O][Al]([F])[O]1; NOTA(AlF) = O=C1CN2CCN(CCN(CC(=O)*)CC2)CC(=O)[O][Al]([F])[O]1; Haic = O=C1[C@@H](N[*:1])CCc2cccc3c2N1[C@H](C(=O)[*:2])C3; NH(5-HO-2-oxo-oxolan-4-yl) = O=C1CC(N*)C(O)O1; X1 = O=C(CN1CCN([*:1])CC1)[*:2]
Key:
[1] = Radioactive metabolite screening in male CD-1 mouse urine by radiometric HPLC; format: in vivo, male CD-1 mice; conditions: for 60 minutes (% parent in urine): male CD-1 mouse urine, 60 minutes post tail vein injection, n=3; for radiometabolites in urine: mice, urine at 60 min post dose
Protocol: Radioactive metabolite screening studies were performed by injection of [18F] granzyme B tracers in male CD-1 mice followed by analysis of urine samples at 60 minutes by radiometric HPLC.
Briefly, male CD-1 mice were anesthetized prior to dosing with approximately 250 μCi [^18F] granzyme B tracer via tail vein injection (n=3 mice). Urine samples were collected at the 60 minutes post-injection following anesthesia and cervical dislocation. Samples were diluted 100-fold in water prior to injection by HPLC.
Diluted samples were then analyzed on an Agilent 1290 series UPLC UV coupled with a BGO coincidence detector. The HPLC method utilized either 1) Phenomenex Kinetex EVO C18 (150×2.1 mm, 1.7 micron); 100 μL injection volume; flow-rate: 0.5 mL/min; solvent for A: 0.1% formic acid in water; solvent for B: 100% acetonitrile; gradient: initial hold at 5% B hold for 1 min, 5% to 40% in 7 min, hold 40% B for 2 min, increase from 40% to 95% B in 1 min, hold 95% B for 2 min, and then return to 5% B to reequilibrate, or 2) Phenomenex Monolithic C18 (100×4.6 mm); 100 μL injection volume; flow-rate: 1.2 mL/min; solvent for A: 20 mM ammonium acetate in water; solvent for B: 100% methanol; gradient: same as above.

[2] = biological target: T1, granzyme B (Human lymphocytes) (Homo sapiens, UniProt P10144); experiment: In vivo PET/CT imaging of ^18F-granzyme B tracers in a Matrigel mouse model of active and pro-form granzyme B; conditions: female nude athymic mice with granzyme B/Matrigel implants, iv ^18F-radiotracer, PET 75-minutes post-injection
T1 construct: Matrigel Mouse Model of Active and Pro-Form Granzyme B; purchased Enzo Life Sciences; host or cells: human lymphocytes
T1 sequence (P10144 21-247): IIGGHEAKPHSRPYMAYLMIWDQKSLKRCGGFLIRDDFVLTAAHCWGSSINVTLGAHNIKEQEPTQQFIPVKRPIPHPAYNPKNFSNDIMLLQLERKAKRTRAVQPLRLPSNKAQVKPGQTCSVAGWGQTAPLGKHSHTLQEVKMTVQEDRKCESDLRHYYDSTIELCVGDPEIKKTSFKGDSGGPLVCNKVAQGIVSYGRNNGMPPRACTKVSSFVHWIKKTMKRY
Protocol: Female nude athymic (5-6 weeks, 15-30 g) mice were purchased from Jackson Laboratories. Both granzyme B (Human lymphocytes, Enzo Life Sciences) and inactivated human pro-form granzyme B (R&D Systems) were also commercially purchased. […] Each granzyme B enzyme was then brought up to a final concentration of 0.05 μg/ul using phosphate buffered saline (GE, Hyclone). Matrigel (65 μl, Corning) was mixed with 15 μl of 0.75 μg of each granzyme B enzyme (granzyme B and pro-form granzyme B) within each Eppendorf tube. The mice were then anesthetized with 2.5-3% isoflurane mixed with oxygen. Approximately 60-80 μl of granzyme B/Matrigel or the pro-form granzyme B/Matrigel were then injected using a 28-gauge X 0.5-inch insulin syringe (Terumo) to form implants on the right and left shoulder flanks of the mice. Approximately five minutes later, the mice were administered the ^18F-radiotracer via a bolus intravenous injection (approximately 150 μCi in a total volume of 100 ul saline plus an additional ˜25 ul saline to flush the catheter line). After the radiotracer injection, the catheter was removed and measured for any remaining residual radioactivity. The mice were then placed back in their cage for recovery. A nanoScan® PET/CT (Mediso, Hungary) was used for micro-PET/CT imaging in which 15-minute static PET scans were conducted 75-minutes post-injection of the radiotracer. Tera-Tomo™ 3D PET iterative reconstruction along with scatter correction were then conducted post-acquisition. A short high-resolution computed tomography (CT) scan was also performed immediately after to allow for anatomical registration. PET signal in the granzyme B implants were quantified by manually drawing regions of interest (ROIs) over the Matrigel implants based on the fused PET/CT images and the corresponding activity values were determined with VivoQuant (Invicro, Massachusetts). All values were represented as % injected dose per gram (% ID/g). Target to background ratios (TBR's) were then calculated by dividing the granzyme B % ID/g value by the pro-form granzyme B % ID/g value. PET imaging timepoints and granzyme B concentrations used in these experiments were determined in previous studies (data not shown).

CC[C@H](C)[C@H](NC(=O)CCNC(=O)CCNC(=O)CN(CC(=O)O)C(=O)CN1CCC(CN2CCN3CCN(CC2)CC(=O)[O][Al]([F])[O]C(=O)C3)CC1)C(=O)N[C@H]1CCc2cccc3c2N(C1=O)[C@H](C(=O)NC1CC(=O)OC1O)C3 (stereo partly shown) [18F-5-Al]
60 minutes (% parent in urine) [1]: 100%

CC[C@H](C)[C@H](NC(=O)COCCNC(=O)[C@@H](CCC(=O)O)NC(=O)[C@@H](CCC(=O)O)NC(=O)CN1CCN(C(=O)CN2CCN3CCN(CC2)CC(=O)[O][Al]([F])[O]C(=O)C3)CC1)C(=O)N[C@H]1CCc2cccc3c2N(C1=O)[C@H](C(=O)NC1CC(=O)OC1O)C3 (stereo partly shown) [Compound ^18F-10-Al]
in vivo imaging activity [2]: good imaging activity

CC[C@H](C)[C@H](NC(=O)CNC(=O)CNC(=O)[C@H](CCC(=O)O)NC(=O)CN1CCN(C(=O)CN2CCN3CCN(CC2)CC(=O)[O][Al]([F])[O]C(=O)C3)CC1)C(=O)N[C@H]1CCc2cccc3c2N(C1=O)[C@H](C(=O)NC1CC(=O)OC1O)C3 (stereo partly shown) [18F-8-Al] ({NOTA(AlF)}-[X1]EGGI[Haic]-{NH(5-HO-2-oxo-oxolan-4-yl)})
in vivo imaging activity [2]: good imaging activity

CC[C@H](C)[C@H](NC(=O)CCNC(=O)CCNC(=O)[C@@H](CCC(=O)O)NC(=O)CN1CCC(CN2CCN3CCN(CC2)CC(=O)[O][Al]([F])[O]C(=O)C3)CC1)C(=O)N[C@H]1CCc2cccc3c2N(C1=O)[C@H](C(=O)NC1CC(=O)OC1O)C3 (stereo partly shown) [Compound ^18F-1-Al]
60 minutes (% parent in urine) [1]: 100% | radiometabolites in urine [1]: no radiometabolites were observed | in vivo imaging activity [2]: good imaging activity

CC[C@H](C)[C@H](NC(=O)CCNC(=O)CC[C@H](NC(=O)CN1CCC(CN2CCN3CCN(CC2)CC(=O)[O][Al]([F])[O]C(=O)C3)CC1)C(=O)O)C(=O)N[C@H]1CCc2cccc3c2N(C1=O)[C@H](C(=O)NC1CC(=O)OC1O)C3 (stereo partly shown) [18F-6-Al]
60 minutes (% parent in urine) [1]: 66.3%

CC[C@H](C)[C@H](NC(=O)COCCNC(=O)[C@@H](CCC(=O)O)NC(=O)[C@@H](CCC(=O)O)NC(=O)CN1CCC(CN2CCN3CCN(CC2)CC(=O)[O][Al]([F])[O]C(=O)C3)CC1)C(=O)N[C@H]1CCc2cccc3c2N(C1=O)[C@H](C(=O)NC1CC(=O)OC1O)C3 (stereo partly shown) [Compound ^18F-4-Al]
60 minutes (% parent in urine) [1]: 100% | radiometabolites in urine [1]: no radiometabolites were observed | in vivo imaging activity [2]: good imaging activity

CC[C@H](C)[C@H](NC(=O)CNC(=O)CNC(=O)[C@H](CCC(=O)O)NC(=O)CN1CCC(CN2CCN3CCN(CC2)CC(=O)[O][Al]([F])[O]C(=O)C3)CC1)C(=O)N[C@H]1CCc2cccc3c2N(C1=O)[C@H](C(=O)NC1CC(=O)OC1O)C3 (stereo partly shown) [18F-2-Al] (X2-EGGI[Haic]-{NH(5-HO-2-oxo-oxolan-4-yl)})
in vivo imaging activity [2]: good imaging activity

CC[C@H](C)[C@H](NC(=O)CCNC(=O)CN(CC(=O)O)C(=O)CCNC(=O)CN1CCC(CN2CCN3CCN(CC2)CC(=O)[O][Al]([F])[O]C(=O)C3)CC1)C(=O)N[C@H]1CCc2cccc3c2N(C1=O)[C@H](C(=O)NC1CC(=O)OC1O)C3 (stereo partly shown) [Compound ^18F-3-Al]
60 minutes (% parent in urine) [1]: 100% | radiometabolites in urine [1]: no radiometabolites were observed | in vivo imaging activity [2]: good imaging activity

CC[C@H](C)[C@H](NC(=O)CCNC(=O)CCNC(=O)[C@@H](CCC(=O)O)NC(=O)CN1CCN(C(=O)CN2CCN3CCN(CC2)CC(=O)[O][Al]([F])[O]C(=O)C3)CC1)C(=O)N[C@H]1CCc2cccc3c2N(C1=O)[C@H](C(=O)NC1CC(=O)OC1O)C3 (stereo partly shown) [Compound ^18F-12-Al]
in vivo imaging activity [2]: good imaging activity

CC[C@H](C)[C@H](NC(=O)CCNC(=O)CCNC(=O)CN(CC(=O)O)C(=O)CN1CCN(C(=O)CN2CCN3CCN(CC2)CC(=O)[O][Al]([F])[O]C(=O)C3)CC1)C(=O)N[C@H]1CCc2cccc3c2N(C1=O)[C@H](C(=O)NC1CC(=O)OC1O)C3 (stereo partly shown) [Compound ^18F-13-Al]
in vivo imaging activity [2]: good imaging activity
